Measurements published in the NIST ThermoML archive (doi:10.1021/je0498560).
Numbers after ± are expanded uncertainties.

Test: xn = mol fraction of the nth substance listed
Conditions: Liquid

CC#N [acetonitrile] + O=C=O
313 K
Conditions | molar volume [m3/mol]
x2 = 0.044 | 5.19e-05 ± 1.2e-06
x2 = 0.073 | 5.25e-05 ± 1.2e-06
x2 = 0.093 | 5.33e-05 ± 1.2e-06
x2 = 0.168 | 5.24e-05 ± 1.2e-06
x2 = 0.241 | 5.11e-05 ± 1.2e-06
x2 = 0.312 | 5.1e-05 ± 1.1e-06
x2 = 0.381 | 5.18e-05 ± 1.2e-06
x2 = 0.449 | 5.07e-05 ± 1.1e-06
x2 = 0.523 | 4.98e-05 ± 1.1e-06
x2 = 0.598 | 4.96e-05 ± 1.1e-06
x2 = 0.688 | 4.9e-05 ± 1.1e-06
x2 = 0.77 | 4.87e-05 ± 1.1e-06
x2 = 0.834 | 5.08e-05 ± 1.2e-06

CC(C)=O [acetone] + O=C=O
323 K
Conditions | molar volume [m3/mol]
x2 = 0.056 | 7.37e-05 ± 1.8e-06
x2 = 0.14 | 7.18e-05 ± 1.8e-06
x2 = 0.251 | 6.75e-05 ± 1.7e-06
x2 = 0.335 | 6.67e-05 ± 1.7e-06
x2 = 0.432 | 6.42e-05 ± 1.6e-06
x2 = 0.53 | 6.23e-05 ± 1.5e-06
x2 = 0.603 | 6.1e-05 ± 1.5e-06
x2 = 0.648 | 6.01e-05 ± 1.5e-06
x2 = 0.695 | 5.71e-05 ± 1.4e-06
x2 = 0.73 | 5.66e-05 ± 1.4e-06
x2 = 0.76 | 5.74e-05 ± 1.4e-06
x2 = 0.787 | 5.81e-05 ± 1.4e-06

OCC(F)(F)F [2,2,2-trifluoroethanol] + O=C=O
Conditions | molar volume [m3/mol]
298 K, x2 = 0.132 | 6.39e-05 ± 1.4e-06
298 K, x2 = 0.225 | 6.3e-05 ± 1.4e-06
298 K, x2 = 0.358 | 5.95e-05 ± 1.3e-06
298 K, x2 = 0.48 | 5.81e-05 ± 1.2e-06
298 K, x2 = 0.599 | 5.71e-05 ± 1.2e-06
298 K, x2 = 0.704 | 5.51e-05 ± 1.1e-06
298 K, x2 = 0.749 | 5.51e-05 ± 1.1e-06
298 K, x2 = 0.795 | 5.43e-05 ± 1.1e-06
298 K, x2 = 0.842 | 5.49e-05 ± 1.1e-06
298 K, x2 = 0.888 | 5.48e-05 ± 1.1e-06
298 K, x2 = 0.927 | 5.5e-05 ± 1.1e-06
313 K, x2 = 0.16 | 6.1e-05 ± 1.5e-06
313 K, x2 = 0.23 | 6.13e-05 ± 1.5e-06
313 K, x2 = 0.337 | 6.06e-05 ± 1.4e-06
313 K, x2 = 0.424 | 5.94e-05 ± 1.4e-06
313 K, x2 = 0.517 | 5.84e-05 ± 1.4e-06
313 K, x2 = 0.628 | 5.51e-05 ± 1.3e-06
313 K, x2 = 0.715 | 5.3e-05 ± 1.2e-06
313 K, x2 = 0.773 | 5.34e-05 ± 1.2e-06
313 K, x2 = 0.849 | 5.65e-05 ± 1.3e-06
313 K, x2 = 0.901 | 5.98e-05 ± 1.3e-06

C1CCOC1 [tetrahydrofuran] + O=C=O
Conditions | molar volume [m3/mol]
298 K, x2 = 0.132 | 7.08e-05 ± 1.4e-06
298 K, x2 = 0.228 | 6.55e-05 ± 1.3e-06
298 K, x2 = 0.333 | 6.46e-05 ± 1.3e-06
298 K, x2 = 0.451 | 6.2e-05 ± 1.2e-06
298 K, x2 = 0.518 | 6.08e-05 ± 1.2e-06
298 K, x2 = 0.624 | 5.86e-05 ± 1.2e-06
298 K, x2 = 0.736 | 5.64e-05 ± 1.1e-06
298 K, x2 = 0.83 | 5.49e-05 ± 1.1e-06
298 K, x2 = 0.899 | 5.43e-05 ± 1e-06
313 K, x2 = 0.098 | 7.75e-05 ± 1.8e-06
313 K, x2 = 0.313 | 7.09e-05 ± 1.6e-06
313 K, x2 = 0.398 | 6.82e-05 ± 1.6e-06
313 K, x2 = 0.489 | 6.53e-05 ± 1.5e-06
313 K, x2 = 0.576 | 6.29e-05 ± 1.4e-06
313 K, x2 = 0.655 | 6.23e-05 ± 1.4e-06
313 K, x2 = 0.733 | 6.02e-05 ± 1.4e-06
313 K, x2 = 0.832 | 5.72e-05 ± 1.3e-06
313 K, x2 = 0.89 | 6.02e-05 ± 1.3e-06
333 K, x2 = 0.165 | 7.45e-05 ± 2e-06
333 K, x2 = 0.26 | 7.34e-05 ± 2e-06
333 K, x2 = 0.404 | 6.87e-05 ± 1.9e-06
333 K, x2 = 0.539 | 6.6e-05 ± 1.8e-06
333 K, x2 = 0.696 | 5.84e-05 ± 1.6e-06
333 K, x2 = 0.808 | 6.04e-05 ± 1.6e-06
333 K, x2 = 0.85 | 6.29e-05 ± 1.7e-06
333 K, x2 = 0.893 | 7.05e-05 ± 1.9e-06
